Where “and” joins values, the source holds several entries; their conditions need not be identical. Equal values may be shown once.
Experiments:
Format in all cases: in vivo
Sorghum halepense = experiment: Post-emergence herbicidal action against Sorghum halepense; details: 21 DAT
Procedure: (§1) When the observed efficacies exceed the formal sum total of the values of the tests with individual applications, they also exceed the expected value according to Colby, which is calculated using the formula below and is likewise regarded as an indication of synergism (cf. S. R. Colby; in Weeds 15 (1967) p. 20 to 22): E^C=A+B−([…])
(§2) Here: • A=efficacy of the active compound (A) in % at an application rate of a g a.i./ha; • B=efficacy of the active compound (B) in % at an application rate of b g a.i./ha; • E^C=expected value of the effect of the combination (A)+(B) in % at the combined application rate a+b g a.i./ha.
(§3) Seeds or rhizome pieces of mono- and dicotyledonous weeds are placed in sandy loam in pots, covered with soil and grown in a greenhouse under good growth conditions (temperature, air humidity, water supply). Three weeks after sowing, the test plants were treated at the three-leaf stage with the compositions according to the invention. The compositions according to the invention formulated as spray powders or as emulsion concentrates were sprayed onto the green plant parts in various dosages with an application rate of 300 to 800 l/ha of water (equivalent). After the test plants have been left to stand in the greenhouse under optimal growth conditions for about 3 to 4 weeks, the action of the preparations is scored visually in comparison to untreated controls. The compositions according to the invention also have good post-emergence herbicidal activity against a broad spectrum of economically important gramineous and broadleaf weeds.

Veronica hederifolia = experiment: Post-emergence herbicidal action against Veronica hederifolia; details: 28 DAT; 450 g a.i./ha
Alopecurus myosuroides = experiment: Post-emergence herbicidal action against Alopecurus myosuroides
Lolium rigidum = experiment: Post-emergence herbicidal action against Lolium rigidum
Polygonum convolvulus = experiment: Post-emergence herbicidal action against Polygonum convolvulus; details: 21 DAT; 50 g a.i./ha
Amaranthus palmeri = experiment: Post-emergence herbicidal action against Amaranthus palmeri; details: 21 DAT; (res.); 50 g a.i./ha
Procedure, shortened: (§4)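 Post-emergence foliar application: sandy-loam pots, greenhouse, treatment at three-leaf stage, 300–800 l/ha spray volume. Readout is visual % effect at 3–4 weeks, compared with the Colby expected value for mixtures.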

Bromus sterilis = experiment: Post-emergence herbicidal action against Bromus sterilis
Matricaria inodora = experiment: Post-emergence herbicidal action against Matricaria inodora
Kochia scoparia = experiment: Post-emergence herbicidal action against Kochia scoparia; details: 21 DAT
Echinochloa crus-galli = experiment: Post-emergence herbicidal action against Echinochloa crus-galli; details: 21 DAT; 50 g a.i./ha
Procedure: as §1, §2, §3

Poa annua = experiment: Post-emergence herbicidal action against Poa annua
Procedure, shortened: as §4

Phalaris minor = experiment: Post-emergence herbicidal action against Phalaris minor
Lamium purpureum = experiment: Post-emergence herbicidal action against Lamium purpureum
Procedure, shortened: as §4

Bidens pilosa = experiment: Post-emergence herbicidal action against Bidens pilosa; details: 21 DAT
Procedure, shortened: as §4

Centaurea cyano = experiment: Post-emergence herbicidal action against Centaurea cyano
Procedure, shortened: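 Greenhouse pot-grown plants sprayed post-emergence at the three-leaf stage, three weeks after sowing, with spray-powder or emulsion-concentrate formulations at various dosages in 300 to 800 l/ha water on green parts.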

Digitaria sanguinalis = experiment: Post-emergence herbicidal action against Digitaria sanguinalis; details: 21 DAT; 50 g a.i./ha
Procedure, shortened: as §4

With `O=C(O)CNCP(=O)(O)O` [(B7.5) Glyphosate] the Herbicidal action (Sorghum halepense; 50 g a.i./ha) was 30%, the Herbicidal action (Sorghum halepense; 150 g a.i./ha) was 70% and the Herbicidal action (Sorghum halepense; 450 g a.i./ha) was 85%. It also gave a Herbicidal action (Veronica hederifolia) of 90%, a Herbicidal action (Alopecurus myosuroides; 14 DAT, 50 g a.i./ha) of 30% and a Herbicidal action (Alopecurus myosuroides; 28 DAT, 50 g a.i./ha) of 10%. The Herbicidal action (Alopecurus myosuroides; 28 DAT, 150 g a.i./ha) was 30%, the Herbicidal action (Alopecurus myosuroides; 28 DAT, 450 g a.i./ha) was 60% and the Herbicidal action (Lolium rigidum; 14 DAT, 50 g a.i./ha) was 40%. It also gave a Herbicidal action (Lolium rigidum; 14 DAT, resistant biotype, 50 g a.i./ha) of 20%, a Herbicidal action (Lolium rigidum; 28 DAT, 50 g a.i./ha) of 30% and a Herbicidal action (Lolium rigidum; 28 DAT, 150 g a.i./ha) of 60%. It also gave a Herbicidal action (Polygonum convolvulus) of 10%, a Herbicidal action (Amaranthus palmeri) of 60% and a Herbicidal action (Bromus sterilis; 14 DAT, 50 g a.i./ha) of 30%. The Herbicidal action (Bromus sterilis; 28 DAT, 150 g a.i./ha) was 40%, the Herbicidal action (Matricaria inodora; 14 DAT, 50 g a.i./ha) was 40% and 50% and the Herbicidal action (Matricaria inodora; 28 DAT, 450 g a.i./ha) was 80%. For the same compound, the Herbicidal action (Kochia scoparia; 50 g a.i./ha) was 35%, the Herbicidal action (Kochia scoparia; 150 g a.i./ha) was 20% and the Herbicidal action (Echinochloa crus-galli) was 45%. The Herbicidal action (Poa annua; 14 DAT, 50 g a.i./ha) was 20%, the Herbicidal action (Poa annua; 28 DAT, 50 g a.i./ha) was 30% and the Herbicidal action (Poa annua; 28 DAT, 150 g a.i./ha) was 50% and 60%. For the same compound, the Herbicidal action (Poa annua; 28 DAT, 450 g a.i./ha) was 60%, the Herbicidal action (Phalaris minor; 14 DAT, 50 g a.i./ha) was 30% and the Herbicidal action (Phalaris minor; 14 DAT, 450 g a.i./ha) was 80%. For the same compound, the Herbicidal action (Phalaris minor; 28 DAT, 450 g a.i./ha) was 30%, the Herbicidal action (Lamium purpureum; 14 DAT, 50 g a.i./ha) was 50% and the Herbicidal action (Lamium purpureum; 28 DAT, 50 g a.i./ha) was 30%. It also gave a Herbicidal action (Lamium purpureum; 28 DAT, 150 g a.i./ha) of 40%, a Herbicidal action (Lamium purpureum; 28 DAT, 450 g a.i./ha) of 75% and a Herbicidal action (Bidens pilosa; 150 g a.i./ha) of 75%. The Herbicidal action (Bidens pilosa; 450 g a.i./ha) was 85%, the Herbicidal action (Centaurea cyano; 14 DAT, 50 g a.i./ha) was 30% and the Herbicidal action (Centaurea cyano; 14 DAT, 150 g a.i./ha) was 60%. It also gave a Herbicidal action (Centaurea cyano; 28 DAT, 50 g a.i./ha) of 30%, a Herbicidal action (Centaurea cyano; 28 DAT, 150 g a.i./ha) of 60% and a Herbicidal action (Centaurea cyano; 28 DAT, 450 g a.i./ha) of 85%. For the same compound, the Herbicidal action (Digitaria sanguinalis) was 80%.
